Assay results reported in the kinase profiling compilation of Christmann-Franck et al. (2016).

Columns and labels:
Experiment in all cases: radiometric filter-binding kinase assay, Kinase HotSpot
Conditions in all cases: compound 0.5 µM; ATP 10 µM
RPS6KA4 KD2 (human) = RPS6KA4 KD2 (human) (UniProt O75676)
MAP4K5 (human) = MAP4K5 (human) (UniProt Q9Y4K4)
MINK1 (human) = MINK1 (human) (UniProt Q8N4C8)
PTK2B (human) = PTK2B (human) (UniProt Q14289)
PNCK (human) = PNCK (human) (UniProt Q6P2M8)
CLK4 (human) = CLK4 (human) (UniProt Q9HAZ1)
CDC42BPB (human) = CDC42BPB (human) (UniProt Q9Y5S2)
MAP3K9 (human) = MAP3K9 (human) (UniProt P80192)
GRK7 (human) = GRK7 (human) (UniProt Q8WTQ7)
CLK1 (human) = CLK1 (human) (UniProt P49759)
TAOK3 (human) = TAOK3 (human) (UniProt Q9H2K8)
CLK3 (human) = CLK3 (human) (UniProt P49761)
CAMK2G (human) = CAMK2G (human) (UniProt Q13555)
EPHB4 (human) = EPHB4 (human) (UniProt P54760)
BRSK1 (human) = BRSK1 (human) (UniProt Q8TDC3)
Chain of BRSK1 (human) (Q8TDC3 whole entry, looked up): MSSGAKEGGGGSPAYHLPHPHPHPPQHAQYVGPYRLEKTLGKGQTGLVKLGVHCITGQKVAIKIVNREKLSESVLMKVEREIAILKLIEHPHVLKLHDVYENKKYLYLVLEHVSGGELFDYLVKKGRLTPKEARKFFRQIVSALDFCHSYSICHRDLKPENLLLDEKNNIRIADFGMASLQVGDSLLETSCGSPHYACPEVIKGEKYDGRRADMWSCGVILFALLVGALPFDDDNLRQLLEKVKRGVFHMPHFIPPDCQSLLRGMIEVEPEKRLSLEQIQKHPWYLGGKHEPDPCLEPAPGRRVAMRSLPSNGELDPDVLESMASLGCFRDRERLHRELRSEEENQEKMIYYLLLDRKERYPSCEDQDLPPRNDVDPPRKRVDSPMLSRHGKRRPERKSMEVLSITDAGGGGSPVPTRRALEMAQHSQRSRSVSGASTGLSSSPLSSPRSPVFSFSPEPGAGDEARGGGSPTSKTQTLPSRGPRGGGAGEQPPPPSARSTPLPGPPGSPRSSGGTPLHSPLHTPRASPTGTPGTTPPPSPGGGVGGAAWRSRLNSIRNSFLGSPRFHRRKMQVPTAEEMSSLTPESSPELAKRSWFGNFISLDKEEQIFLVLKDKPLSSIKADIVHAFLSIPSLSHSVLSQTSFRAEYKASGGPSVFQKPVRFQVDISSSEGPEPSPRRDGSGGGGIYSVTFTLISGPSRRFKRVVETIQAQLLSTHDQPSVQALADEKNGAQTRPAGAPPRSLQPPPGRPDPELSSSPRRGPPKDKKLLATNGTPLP

ERBB4 (human) = ERBB4 (human) (UniProt Q15303)
JAK2 JH1 JH2 (human) = JAK2 JH1 JH2 (human) (UniProt O60674)
CDK6 CCND3 (human) = CDK6 CCND3 (human) (UniProt P30281+Q00534)
EPHA7 (human) = EPHA7 (human) (UniProt Q15375)
DAPK3 (human) = DAPK3 (human) (UniProt O43293)
Chain of DAPK3 (human) (O43293 whole entry, looked up): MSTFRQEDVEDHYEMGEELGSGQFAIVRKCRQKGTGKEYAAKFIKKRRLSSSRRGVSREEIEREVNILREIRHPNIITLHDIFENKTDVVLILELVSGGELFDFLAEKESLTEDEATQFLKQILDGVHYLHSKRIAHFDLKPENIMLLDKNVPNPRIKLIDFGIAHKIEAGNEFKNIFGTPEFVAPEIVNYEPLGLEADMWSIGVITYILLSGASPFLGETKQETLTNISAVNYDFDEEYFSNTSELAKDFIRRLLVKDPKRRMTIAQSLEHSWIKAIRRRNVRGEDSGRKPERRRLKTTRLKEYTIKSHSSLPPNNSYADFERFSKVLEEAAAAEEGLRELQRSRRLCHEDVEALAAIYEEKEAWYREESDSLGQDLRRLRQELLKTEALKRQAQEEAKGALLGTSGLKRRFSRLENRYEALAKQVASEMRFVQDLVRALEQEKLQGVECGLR

CSK (human) = CSK (human) (UniProt P41240)
TEC (human) = TEC (human) (UniProt P42680)
CSNK2A1 (human) = CSNK2A1 (human) (UniProt P68400)
MAP3K5 (human) = MAP3K5 (human) (UniProt Q99683)
RPS6KA5 KD2 (human) = RPS6KA5 KD2 (human) (UniProt O75582)
CDK9 CCNT1 (human) = CDK9 CCNT1 (human) (UniProt P50750+O60563)
CSNK1A1 (human) = CSNK1A1 (human) (UniProt P48729)
MERTK (human) = MERTK (human) (UniProt Q12866)
WNK3 (human) = WNK3 (human) (UniProt Q9BYP7)
Chain of WNK3 (human) (Q9BYP7 whole entry, looked up): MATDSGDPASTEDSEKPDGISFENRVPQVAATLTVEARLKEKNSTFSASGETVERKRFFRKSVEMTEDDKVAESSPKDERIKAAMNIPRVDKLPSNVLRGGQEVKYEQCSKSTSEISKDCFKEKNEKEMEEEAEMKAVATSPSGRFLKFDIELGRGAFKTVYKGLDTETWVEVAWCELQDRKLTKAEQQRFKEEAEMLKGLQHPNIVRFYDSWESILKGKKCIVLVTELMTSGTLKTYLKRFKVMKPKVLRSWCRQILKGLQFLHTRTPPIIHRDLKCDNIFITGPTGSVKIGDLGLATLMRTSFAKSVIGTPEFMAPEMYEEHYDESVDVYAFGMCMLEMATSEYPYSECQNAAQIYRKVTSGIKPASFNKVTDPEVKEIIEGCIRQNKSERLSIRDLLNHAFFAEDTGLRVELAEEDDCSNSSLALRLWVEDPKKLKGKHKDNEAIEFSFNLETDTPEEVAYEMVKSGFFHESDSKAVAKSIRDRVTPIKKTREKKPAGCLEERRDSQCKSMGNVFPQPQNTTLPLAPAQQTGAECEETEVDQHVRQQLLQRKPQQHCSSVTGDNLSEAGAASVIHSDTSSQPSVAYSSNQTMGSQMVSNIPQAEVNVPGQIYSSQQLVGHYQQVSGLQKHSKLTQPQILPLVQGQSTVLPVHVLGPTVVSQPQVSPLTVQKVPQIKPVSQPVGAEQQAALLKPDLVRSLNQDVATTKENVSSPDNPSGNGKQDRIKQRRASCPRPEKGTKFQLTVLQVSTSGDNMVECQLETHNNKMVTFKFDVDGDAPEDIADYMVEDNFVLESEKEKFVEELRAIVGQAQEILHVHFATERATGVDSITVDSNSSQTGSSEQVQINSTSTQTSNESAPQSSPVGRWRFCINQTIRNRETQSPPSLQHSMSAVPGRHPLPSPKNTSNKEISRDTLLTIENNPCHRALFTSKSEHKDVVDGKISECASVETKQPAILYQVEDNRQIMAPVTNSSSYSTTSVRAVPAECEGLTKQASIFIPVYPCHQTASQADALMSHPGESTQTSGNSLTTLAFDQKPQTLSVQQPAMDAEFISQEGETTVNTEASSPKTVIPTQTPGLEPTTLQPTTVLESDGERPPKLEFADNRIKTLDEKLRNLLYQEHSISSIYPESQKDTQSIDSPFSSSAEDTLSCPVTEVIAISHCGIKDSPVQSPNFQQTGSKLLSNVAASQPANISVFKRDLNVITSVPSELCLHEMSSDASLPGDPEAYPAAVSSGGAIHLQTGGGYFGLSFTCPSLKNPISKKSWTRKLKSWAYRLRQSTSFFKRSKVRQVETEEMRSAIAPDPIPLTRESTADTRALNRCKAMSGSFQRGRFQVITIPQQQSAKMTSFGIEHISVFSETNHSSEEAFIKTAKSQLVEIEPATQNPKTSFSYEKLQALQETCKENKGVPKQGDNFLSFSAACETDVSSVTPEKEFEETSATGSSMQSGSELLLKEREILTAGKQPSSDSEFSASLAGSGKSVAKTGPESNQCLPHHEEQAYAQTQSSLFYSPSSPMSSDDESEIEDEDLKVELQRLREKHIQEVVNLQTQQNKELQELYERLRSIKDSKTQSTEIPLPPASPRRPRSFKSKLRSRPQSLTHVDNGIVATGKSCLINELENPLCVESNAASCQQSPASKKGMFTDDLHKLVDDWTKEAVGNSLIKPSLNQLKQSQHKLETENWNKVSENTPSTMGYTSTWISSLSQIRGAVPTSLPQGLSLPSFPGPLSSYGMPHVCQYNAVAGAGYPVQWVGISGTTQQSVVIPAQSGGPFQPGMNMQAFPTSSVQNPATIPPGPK

MYLK2 (human) = MYLK2 (human) (UniProt Q9H1R3)
DYRK4 (human) = DYRK4 (human) (UniProt Q9NR20)
Chain of DYRK4 (human) (Q9NR20 whole entry, looked up): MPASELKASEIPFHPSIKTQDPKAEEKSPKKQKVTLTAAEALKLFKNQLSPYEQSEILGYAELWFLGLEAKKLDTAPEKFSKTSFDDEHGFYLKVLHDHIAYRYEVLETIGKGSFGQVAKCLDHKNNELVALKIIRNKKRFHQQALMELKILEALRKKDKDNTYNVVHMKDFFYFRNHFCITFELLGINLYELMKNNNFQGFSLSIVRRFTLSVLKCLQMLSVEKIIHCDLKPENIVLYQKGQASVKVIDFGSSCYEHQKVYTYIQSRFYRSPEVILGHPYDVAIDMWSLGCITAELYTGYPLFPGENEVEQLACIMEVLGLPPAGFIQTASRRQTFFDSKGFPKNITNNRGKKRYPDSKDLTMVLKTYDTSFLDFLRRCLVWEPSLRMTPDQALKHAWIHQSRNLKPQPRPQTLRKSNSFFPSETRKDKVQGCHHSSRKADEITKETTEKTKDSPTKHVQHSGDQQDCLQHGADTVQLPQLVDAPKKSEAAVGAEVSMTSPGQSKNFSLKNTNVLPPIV

LIMK1 (human) = LIMK1 (human) (UniProt P53667)
ACVRL1 (human) = ACVRL1 (human) (UniProt P37023)
ROCK1 (human) = ROCK1 (human) (UniProt Q13464)
GSK3B (human) = GSK3B (human) (UniProt P49841)
VRK1 (human) = VRK1 (human) (UniProt Q99986)
CDK2 CCNE1 (human) = CDK2 CCNE1 (human) (UniProt P24941+P24864)
DAPK2 (human) = DAPK2 (human) (UniProt Q9UIK4)
Chain of DAPK2 (human) (Q9UIK4 whole entry, looked up): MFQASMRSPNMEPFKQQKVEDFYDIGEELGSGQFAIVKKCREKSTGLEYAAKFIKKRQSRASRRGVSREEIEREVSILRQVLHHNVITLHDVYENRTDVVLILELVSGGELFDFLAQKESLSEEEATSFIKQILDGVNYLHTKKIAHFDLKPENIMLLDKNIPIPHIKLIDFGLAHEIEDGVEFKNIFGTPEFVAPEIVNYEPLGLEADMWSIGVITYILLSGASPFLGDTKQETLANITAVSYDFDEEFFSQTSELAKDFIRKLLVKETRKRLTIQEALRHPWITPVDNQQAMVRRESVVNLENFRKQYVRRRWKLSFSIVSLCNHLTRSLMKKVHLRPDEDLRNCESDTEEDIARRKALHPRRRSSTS

MAPK11 (human) = MAPK11 (human) (UniProt Q15759)
Chain of MAPK11 (human) (Q15759 whole entry, looked up): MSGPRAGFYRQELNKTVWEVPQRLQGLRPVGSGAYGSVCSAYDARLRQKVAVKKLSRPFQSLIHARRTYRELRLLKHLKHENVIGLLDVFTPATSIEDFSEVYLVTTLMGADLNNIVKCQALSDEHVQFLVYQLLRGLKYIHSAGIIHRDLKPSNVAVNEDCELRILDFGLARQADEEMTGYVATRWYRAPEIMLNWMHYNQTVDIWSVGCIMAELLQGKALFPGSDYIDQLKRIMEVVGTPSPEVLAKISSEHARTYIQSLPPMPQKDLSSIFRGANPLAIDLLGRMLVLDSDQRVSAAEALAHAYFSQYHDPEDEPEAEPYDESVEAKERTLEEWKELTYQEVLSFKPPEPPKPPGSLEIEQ

ULK1 (human) = ULK1 (human) (UniProt O75385)
TBK1 (human) = TBK1 (human) (UniProt Q9UHD2)
ROS1 (human) = ROS1 (human) (UniProt P08922)

Chain of RPS6KA4 KD2 (human) (O75676 whole entry, looked up): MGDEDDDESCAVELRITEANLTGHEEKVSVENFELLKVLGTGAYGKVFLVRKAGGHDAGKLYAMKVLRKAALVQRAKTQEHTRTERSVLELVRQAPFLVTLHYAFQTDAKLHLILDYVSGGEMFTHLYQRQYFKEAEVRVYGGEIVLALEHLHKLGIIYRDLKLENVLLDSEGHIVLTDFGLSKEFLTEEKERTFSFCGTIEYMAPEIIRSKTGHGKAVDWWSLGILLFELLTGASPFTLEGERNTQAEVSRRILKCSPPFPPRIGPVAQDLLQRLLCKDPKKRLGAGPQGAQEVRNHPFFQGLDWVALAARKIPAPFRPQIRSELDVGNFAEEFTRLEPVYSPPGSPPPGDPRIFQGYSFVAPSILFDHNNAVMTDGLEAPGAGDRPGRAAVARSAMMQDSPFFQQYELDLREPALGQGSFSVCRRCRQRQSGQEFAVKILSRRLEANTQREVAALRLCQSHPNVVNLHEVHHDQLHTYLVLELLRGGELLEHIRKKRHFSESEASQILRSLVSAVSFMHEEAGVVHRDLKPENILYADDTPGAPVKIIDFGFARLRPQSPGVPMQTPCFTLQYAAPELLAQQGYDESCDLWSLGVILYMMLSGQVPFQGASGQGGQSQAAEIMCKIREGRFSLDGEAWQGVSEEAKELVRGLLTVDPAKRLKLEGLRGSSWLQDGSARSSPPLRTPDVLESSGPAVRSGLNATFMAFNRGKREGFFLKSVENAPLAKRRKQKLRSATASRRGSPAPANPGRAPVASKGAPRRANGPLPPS

SMILES: c1ccc(-c2cnc(Nc3ccc(OCCN4CCCC4)cc3)s2)cc1
- residual activity (RPS6KA4 KD2 (human)): 96.1%
- residual activity (MAP4K5 (human)): 72.5%
- residual activity (MINK1 (human)): 38.7%
- residual activity (PTK2B (human)): 77.2%
- residual activity (PNCK (human)): 99.8%
- residual activity (CLK4 (human)): 97.9%
- residual activity (CDC42BPB (human)): 96.7%
- residual activity (MAP3K9 (human)): 94.3%
- residual activity (GRK7 (human)): 90.2%
- residual activity (CLK1 (human)): 89.4%
- residual activity (TAOK3 (human)): 87.4%
- residual activity (CLK3 (human)): 94.3%
- residual activity (CAMK2G (human)): 66.9%
- residual activity (EPHB4 (human)): 91.9%
- residual activity (BRSK1 (human)): 97.6%
- residual activity (ERBB4 (human)): 101%
- residual activity (JAK2 JH1 JH2 (human)): 92.7%
- residual activity (CDK6 CCND3 (human)): 20.1%
- residual activity (EPHA7 (human)): 98%
- residual activity (DAPK3 (human)): 105%
- residual activity (CSK (human)): 89.9%
- residual activity (TEC (human)): 106%
- residual activity (CSNK2A1 (human)): 90.7%
- residual activity (MAP3K5 (human)): 91.1%
- residual activity (RPS6KA5 KD2 (human)): 104%
- residual activity (CDK9 CCNT1 (human)): 66.1%
- residual activity (CSNK1A1 (human)): 86.7%
- residual activity (MERTK (human)): 87.8%
- residual activity (WNK3 (human)): 99%
- residual activity (MYLK2 (human)): 28.7%
- residual activity (DYRK4 (human)): 99.4%
- residual activity (LIMK1 (human)): 66.9%
- residual activity (ACVRL1 (human)): 108%
- residual activity (ROCK1 (human)): 102%
- residual activity (GSK3B (human)): 100%
- residual activity (VRK1 (human)): 89.1%
- residual activity (CDK2 CCNE1 (human)): 85.7%
- residual activity (DAPK2 (human)): 90.3%
- residual activity (MAPK11 (human)): 94.7%
- residual activity (ULK1 (human)): 127%
- residual activity (TBK1 (human)): 87.1%
- residual activity (ROS1 (human)): 96.9%

SMILES: O=C1NC(=O)c2c1c1c3ccccc3[nH]c1c1[nH]c3cc(Br)ccc3c21
- residual activity (RPS6KA4 KD2 (human)): 75.9%
- residual activity (MAP4K5 (human)): 42.3%
- residual activity (MINK1 (human)): 52.2%
- residual activity (PTK2B (human)): 79.5%
- residual activity (PNCK (human)): 99.4%
- residual activity (CLK4 (human)): 49.5%
- residual activity (CDC42BPB (human)): 84.1%
- residual activity (MAP3K9 (human)): 7.57%
- residual activity (GRK7 (human)): 98.2%
- residual activity (CLK1 (human)): 97%
- residual activity (TAOK3 (human)): 82.3%
- residual activity (CLK3 (human)): 93.4%
- residual activity (CAMK2G (human)): 99.5%
- residual activity (EPHB4 (human)): 86.5%
- residual activity (BRSK1 (human)): 21.5%
- residual activity (ERBB4 (human)): 101%
- residual activity (JAK2 JH1 JH2 (human)): 95.8%
- residual activity (CDK6 CCND3 (human)): 40.2%
- residual activity (EPHA7 (human)): 95.3%
- residual activity (DAPK3 (human)): 62.9%
- residual activity (CSK (human)): 100%
- residual activity (TEC (human)): 105%
- residual activity (CSNK2A1 (human)): 93.1%
- residual activity (MAP3K5 (human)): 94.9%
- residual activity (RPS6KA5 KD2 (human)): 76.1%
- residual activity (CDK9 CCNT1 (human)): 87.5%
- residual activity (CSNK1A1 (human)): 95.4%
- residual activity (MERTK (human)): 69.1%
- residual activity (WNK3 (human)): 92.3%
- residual activity (MYLK2 (human)): 43.3%
- residual activity (DYRK4 (human)): 86%
- residual activity (LIMK1 (human)): 83.5%
- residual activity (ACVRL1 (human)): 109%
- residual activity (ROCK1 (human)): 93.9%
- residual activity (GSK3B (human)): 63.7%
- residual activity (VRK1 (human)): 92.3%
- residual activity (CDK2 CCNE1 (human)): 74.9%
- residual activity (DAPK2 (human)): 98.4%
- residual activity (MAPK11 (human)): 93.6%
- residual activity (ULK1 (human)): 99.2%
- residual activity (TBK1 (human)): 53.5%
- residual activity (ROS1 (human)): 74.4%

SMILES: COc1cc2ncnc(Nc3ccc(O)c(Br)c3)c2cc1OC
- residual activity (RPS6KA4 KD2 (human)): 93.8%
- residual activity (MAP4K5 (human)): 28.9%
- residual activity (MINK1 (human)): 64.4%
- residual activity (PTK2B (human)): 86.9%
- residual activity (PNCK (human)): 103%
- residual activity (CLK4 (human)): 101%
- residual activity (CDC42BPB (human)): 98%
- residual activity (MAP3K9 (human)): 80.1%
- residual activity (GRK7 (human)): 96.4%
- residual activity (CLK1 (human)): 77.2%
- residual activity (TAOK3 (human)): 98.8%
- residual activity (CLK3 (human)): 54.1%
- residual activity (CAMK2G (human)): 95.2%
- residual activity (EPHB4 (human)): 52.2%
- residual activity (BRSK1 (human)): 81.6%
- residual activity (ERBB4 (human)): 29.1%
- residual activity (JAK2 JH1 JH2 (human)): 95%
- residual activity (CDK6 CCND3 (human)): 102%
- residual activity (EPHA7 (human)): 46.1%
- residual activity (DAPK3 (human)): 99.1%
- residual activity (CSK (human)): 91.6%
- residual activity (TEC (human)): 108%
- residual activity (CSNK2A1 (human)): 93.7%
- residual activity (MAP3K5 (human)): 98.6%
- residual activity (RPS6KA5 KD2 (human)): 93.4%
- residual activity (CDK9 CCNT1 (human)): 91.4%
- residual activity (CSNK1A1 (human)): 89.6%
- residual activity (MERTK (human)): 87.7%
- residual activity (WNK3 (human)): 95.7%
- residual activity (MYLK2 (human)): 87.3%
- residual activity (DYRK4 (human)): 101%
- residual activity (LIMK1 (human)): 85.1%
- residual activity (ACVRL1 (human)): 102%
- residual activity (ROCK1 (human)): 96.1%
- residual activity (GSK3B (human)): 92%
- residual activity (VRK1 (human)): 86.4%
- residual activity (CDK2 CCNE1 (human)): 95.7%
- residual activity (DAPK2 (human)): 100%
- residual activity (MAPK11 (human)): 90.1%
- residual activity (ULK1 (human)): 87.2%
- residual activity (TBK1 (human)): 84.7%
- residual activity (ROS1 (human)): 65.7%

SMILES: N#CCCc1ccc2c(c1)-c1[nH]c3ccc([N+](=O)[O-])cc3c1CC(=O)N2
- residual activity (RPS6KA4 KD2 (human)): 85.8%
- residual activity (MAP4K5 (human)): 7.61%
- residual activity (MINK1 (human)): 29.9%
- residual activity (PTK2B (human)): 62.9%
- residual activity (PNCK (human)): 107%
- residual activity (CLK4 (human)): 77.1%
- residual activity (CDC42BPB (human)): 54.1%
- residual activity (MAP3K9 (human)): 18.2%
- residual activity (GRK7 (human)): 97.7%
- residual activity (CLK1 (human)): 99.6%
- residual activity (TAOK3 (human)): 66%
- residual activity (CLK3 (human)): 108%
- residual activity (CAMK2G (human)): 66%
- residual activity (EPHB4 (human)): 82.2%
- residual activity (BRSK1 (human)): 46.8%
- residual activity (ERBB4 (human)): 91.8%
- residual activity (JAK2 JH1 JH2 (human)): 93%
- residual activity (CDK6 CCND3 (human)): 26%
- residual activity (EPHA7 (human)): 95.3%
- residual activity (DAPK3 (human)): 99.3%
- residual activity (CSK (human)): 96.3%
- residual activity (TEC (human)): 120%
- residual activity (CSNK2A1 (human)): 91.2%
- residual activity (MAP3K5 (human)): 101%
- residual activity (RPS6KA5 KD2 (human)): 94.2%
- residual activity (CDK9 CCNT1 (human)): 28.6%
- residual activity (CSNK1A1 (human)): 95.1%
- residual activity (MERTK (human)): 77.5%
- residual activity (WNK3 (human)): 96.5%
- residual activity (MYLK2 (human)): 93.9%
- residual activity (DYRK4 (human)): 100%
- residual activity (LIMK1 (human)): 99.9%
- residual activity (ACVRL1 (human)): 53.6%
- residual activity (ROCK1 (human)): 38.9%
- residual activity (GSK3B (human)): 2.71%
- residual activity (VRK1 (human)): 97.5%
- residual activity (CDK2 CCNE1 (human)): 13.4%
- residual activity (DAPK2 (human)): 96.5%
- residual activity (MAPK11 (human)): 101%
- residual activity (ULK1 (human)): 94.2%
- residual activity (TBK1 (human)): 83.7%
- residual activity (ROS1 (human)): 71%
